Data on 25 molecules can be found in patent US6281214A, “Biphenyl derivatives” (Eisai Co., Ltd, priority 1994, dated 2001).

Read-outs that look alike come from different tables or passages of the source.

What all share (set-up): species or system SD rats
The target in experiment [1] is T1, serotonin S2 receptor (Rattus norvegicus, UniProt P14842).
T1 construct: The receptor fraction prepared from the cortex was molten and suspended; from tissue; host or cells: cerebral cortex of SD rats (membrane fraction)
In words: serotonin S2 receptor binding test ([3H] Ketanserin Binding Test). Particulars: 1 nM [3H] Ketanserin, rat cortex, 37° C., 15 minutes. On the procedure:
(§1) The compounds of the present invention were subjected to each of serotonin S2 receptor binding test, dopamine D2 receptor binding test and adrenergic α1 receptor binding test.
(§2) The following reagents were used in this test.
(§3) These reagents and samples were each dissolved in 10% ethanol before use. Among them, water-insoluble compounds were each dissolved in ethanol and the obtained solution was diluted with distilled water to an ethanol concentration of 10%. Further, Methylsergide maleate was used in a state dissolved in distilled water.
(§4) SD rats aged 6 to 8 weeks were used.
(§5) SD rats were each slaughtered with a guillotine to extirpate its cerebrum. The cortex and corpus striatum were separated from the cerebrum. The former was used in serotonin S2 receptor binding test and adrenergic α1, receptor binding test, while the latter was used in dopamine D2 receptor binding test.
(§6) The cortex was homogenized in a 0.32 M sucrose solution in an amount ten times the wet weight of the cortex by the use of a teflon glass homogenizer and the resulting mixture was centrifuged at 10,000×G for 20 minutes. The obtained sediment was suspended in 50 mM Tris hydrochloride (pH 7.4) in an amount ten times the initial wet weight of the cortex by the use of a histocothrom, and the obtained suspension was centrifuged at 10,000×G for 20 minutes. This operation was repeated twice. The obtained sediment was suspended in 50 mM Tris hydrochloride (pH 7.4) in an amount 20 times the initial wet weight of the cortex by the use of a histocothrom. The suspension thus prepared was used as a receptor fraction. This receptor fraction was stored at -80° C. until use.
4. [^3 ] Ketanserin Binding Test
The receptor fraction prepared from the cortex was molten and suspended by the use of a histocothrom. The resulting suspension was incubated together with 1 nM-[^3 H] Ketanserin at 37° C. for 15 minutes. The resulting reaction system was filtered through a Whatman GF/B glass filter with an MR-30R type cell harvester mfd. by Blandel. The resulting filter was washed twice with 5 ml of 50 mM Tris hydrochloride (ph 7.4) cooled with ice and the radioactivity of the Ketanserin bound the receptor was determined by the use of a liquid scintillation counter with 5 ml of ACS II. The binding detected in the presence of […] of Methylsergide was regarded as nonspecific binding.
(§7) Each IC50 value was calculated by the probit method and each Ki value was determined by the following formula: [formula]
(§8) In the above formula, C represents the concentration of radioligand, and Kd represents the affinity of radioligand for the receptor as determined by the Scatchard analysis.

In experiment [2] the target is T2, dopamine D2 receptor (Rattus norvegicus, UniProt P61169).
T2 construct: the receptor fraction prepared from the corpus striatum was molten and suspended; from tissue; host or cells: corpus striatum of SD rats (membrane fraction)
In words: dopamine D2 receptor binding test ([3H] Spiperone Binding Test). As to conditions: 1 nM [3H] Spiperone, rat corpus striatum, room temperature, 60 minutes. How it is done:
as §1, §2, §3, §4, §5
On the other hand, the corpus striatum was homogenized in a 0.32 M sucrose solution in an amount ten times the wet weight of the corpus striatum by the use of a teflon glass homogenizer and the obtained mixture was centrifuged at 1,000×G for 20 minutes. The obtained supernatant was centrifuged at 10,000×G for 20 minutes. The obtained sediments were suspended together in 50 mM Tris hydrochloride (pH 7.4) in an amount ten times the initial wet weight of the corpus striatum by the use of a histocothrom, and the obtained suspension was centrifuged at 10,000×G for 20 minutes. This operation was repeated thrice. The resulting sediment was suspended in 50 mM Krebs-Tris (pH 7.4) in an amount 100 times the initial wet weight of the corpus striatum by the use of a histocothrom. The obtained suspension was used as a receptor fraction. This receptor fraction was stored at -80° C. until use.
as §7, §8
5. [^3 H] Spiperone Binding Test
This test was conducted in the same manner as that of the binding test of [^3 H] Ketanserin except that the receptor fraction prepared from the corpus striatum was molten and suspended with a histocothrom, and the obtained suspension was incubated together with 1 nM-[^3 H], Spiperone at room temperature for 60 minutes and that the binding detected in the presence of 10 μl of Spiperone was regarded as nonspecific binding.

Experiment [3] has as its target adrenergic α1 receptor. Nature of the experiment: adrenergic α1 receptor binding test ([3H] Prazosin Binding Test). As to conditions: 1 nM [3H] Prazosin, rat cortex, room temperature, 60 minutes. On the procedure:
as §1, §2, §3, §4, §5, §6, §7, §8
6. [^3 H] Prazosin Binding Test
This test was conducted in the same manner as that of the binding test of [^3 H] Ketanserin except that the receptor fraction prepared from the cortex was molten and suspended with a histocothrom, and the obtained suspension was incubated together with 1 nM-[^3 H] Prazosin at room temperature for 60 minutes and that the binding detected in the presence of 10 μl of Phentolamine was regarded as nonspecific binding.

Setting [4] is: read-out: Ki value, dopamine D2 receptor.

T1 sequence (P14842 whole entry): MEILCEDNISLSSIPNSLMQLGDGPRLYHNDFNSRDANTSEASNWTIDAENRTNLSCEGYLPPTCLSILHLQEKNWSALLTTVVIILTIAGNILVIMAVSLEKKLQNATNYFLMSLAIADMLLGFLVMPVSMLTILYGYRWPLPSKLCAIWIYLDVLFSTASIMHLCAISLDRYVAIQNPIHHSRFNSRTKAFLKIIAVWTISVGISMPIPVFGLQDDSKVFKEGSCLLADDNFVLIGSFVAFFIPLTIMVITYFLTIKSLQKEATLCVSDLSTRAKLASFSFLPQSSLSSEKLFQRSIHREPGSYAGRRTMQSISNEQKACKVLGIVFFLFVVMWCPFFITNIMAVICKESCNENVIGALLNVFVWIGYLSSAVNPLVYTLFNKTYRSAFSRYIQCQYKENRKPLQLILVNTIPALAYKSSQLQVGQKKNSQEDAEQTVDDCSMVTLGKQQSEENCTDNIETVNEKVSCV
T2 sequence (P61169 whole entry): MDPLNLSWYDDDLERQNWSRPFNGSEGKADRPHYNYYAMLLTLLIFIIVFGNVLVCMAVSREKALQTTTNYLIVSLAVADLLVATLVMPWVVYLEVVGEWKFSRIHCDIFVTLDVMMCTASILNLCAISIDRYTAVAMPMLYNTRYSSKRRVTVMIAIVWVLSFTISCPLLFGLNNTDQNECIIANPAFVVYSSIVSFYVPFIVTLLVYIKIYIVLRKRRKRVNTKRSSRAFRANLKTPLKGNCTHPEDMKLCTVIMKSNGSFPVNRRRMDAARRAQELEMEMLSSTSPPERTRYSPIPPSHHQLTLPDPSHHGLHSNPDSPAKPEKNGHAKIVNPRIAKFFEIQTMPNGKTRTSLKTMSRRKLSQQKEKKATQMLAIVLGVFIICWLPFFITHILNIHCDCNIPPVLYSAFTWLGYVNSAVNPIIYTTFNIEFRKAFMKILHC

As to `CCc1cc(N2CCN(CC)CC2)cc(-c2ccccc2)c1OC` [Example 70], the Ki in experiment [1] stood at 128 nM; in experiment [2] (Ki value, dopamine D2 receptor), 41.9 nM; in experiment [3] it was 322 nM.

Consider `C=CCCC(F)c1cc(N2CCN(CC)CC2)cc(-c2ccccc2)c1OC` (stereo not drawn) [Example 46, 1-Ethyl-4-{3-phenyl-4-methoxy-5-[1-fluoro-(4-pentenyl)]}phenylpiperazine], for which the Ki in experiment [1] was 2.16 nM; in experiment [2] (setting [4]) it was 9.78 nM; in experiment [3], more than 1000 nM.

As to `CCN1CCN(c2cc(-c3ccccc3)c(OC)c(-c3ccco3)c2)CC1` [Example 90], the figures for the Ki in experiment [1], in experiment [2] (setting [4]) and in experiment [3] were 685 nM, 263 nM and more than 1000 nM, respectively.

As for `CCN1CCN(c2cc(CCCOCOC)c(OC)c(-c3ccccc3)c2)CC1` [Example 69, 1-Ethyl-4-[3-phenyl-4-methoxy-5-(3-methoxymethoxypropyl)]phenylpiperazine], the Ki in experiment [1] turned out to be 67.1 nM; in experiment [2] (setting [4]) it was 171 nM; in experiment [3], 321 nM.

`CCN1CCN(c2cc(CCCOC)c(OC)c(-c3ccccc3)c2)CC1` [Example 68, 1-Ethyl-4-[3-phenyl-4-methoxy-5-(3-methoxypropyl)]phenylpiperazine]: the results for the Ki in experiment [1], in experiment [2] (setting [4]) and in experiment [3] were 32 nM, 35.1 nM and 195 nM, respectively.

As to `CCC(=O)c1cc(N2CCN(CC)CC2)cc(-c2ccccc2)c1Cl` [Example 140, 1-Ethyl-4-(3-phenyl-4-chloro-5-propionyl)phenylpiperazine], the Ki was 26.2 nM in experiment [1], 2.97 nM in experiment [2] (setting [4]) and 95.5 nM in experiment [3].

As for `CCN1CCN(c2cc(-c3ccccc3)c(OC)c(C(C)CO)c2)CC1` (stereo not drawn) [Example 87], the Ki in experiment [1] was 283 nM; in experiment [2] (setting [4]) it was 135 nM; in experiment [3], more than 1000 nM.

Regarding `CCN1CCN(c2cc(-c3ccccc3)c(Cl)c(S(=O)(=O)CC)c2)CC1` [Example 139, 1Ethyl-4-(3-phenyl-4-chloro-5-ethanesulfonyl)phenylpiperazine], the Ki in experiment [1] is 5.38 nM; in experiment [2] (setting [4]), 2.34 nM; in experiment [3], 68.7 nM.

In the case of `CCN1CCN(c2cc(-c3ccccc3)c(OC)c(C(F)(F)CC)c2)CC1` [Example 186, 1-Ethyl-4-[3-phenyl-4-methoxy-5-(1,1-difluoropropyl)]phenylpiperazine], the figures for the Ki in experiment [1], in experiment [2] (setting [4]) and in experiment [3] were 4.29 nM, 2.96 nM and more than 1000 nM, respectively.

With `CCN1CCN(c2cc(C(Cc3ccc(F)cc3)=NO)c(OC)c(-c3ccccc3)c2)CC1` [Example 98, 1-Ethyl-4-{3-phenyl-4-methoxy-5-[4-fluoro-(1-hydroxyimino)phentheyl]}phenylpiperazine], the figures for the Ki in experiment [1], in experiment [2] (setting [4]) and in experiment [3] were 19.3 nM, 64.5 nM and more than 1000 nM, respectively.

On to `CCN1CCN(c2cc(-c3ccccc3)c(OC)c(S(=O)(=O)CCC#N)c2)CC1` [Example 183, 1-Ethyl-4-[3-phenyl-4-methoxy-5-(2-cycanoethylsulfonyl)]phenylpiperazine], for which the Ki in experiment [1] was 81.2 nM; in experiment [2] (setting [4]), 165 nM; in experiment [3], more than 1000 nM.

With `CCCOCc1cc(N2CCN(CC)CC2)cc(-c2ccccc2C)c1Cl` [Example 168, 1-Ethyl-4-[3-(2-tolyl)-4-chloro-5-propoxymethyl]phenylpiperazine], the Ki in experiment [1] was 180 nM; in experiment [2] (setting [4]), 31.9 nM; in experiment [3] it was more than 1000 nM.

Take `CCCS(=O)(=O)c1cc(N2CCN(CC)CC2)cc(-c2ccccc2)c1OC` [Example 170, 1-Ethyl-4-(3-phenyl-4-methoxy-5-propanesulfonyl)phenylpiperazine]: the figures for the Ki in experiment [1], in experiment [2] (setting [4]) and in experiment [3] were 2.77 nM, 34.2 nM and more than 1000 nM, respectively.

In the case of `CCN1CCN(c2cc(-c3ccc(F)cc3)c(OC)c(S(=O)(=O)CC)c2)CC1` [Example 40], the Ki in experiment [1] was 3.64 nM; in experiment [2] (setting [4]), 9.25 nM; in experiment [3] it was more than 1000 nM.

For `CCCc1cc(N2CCN(CC)CC2)cc(-c2ccccc2OC)c1OC` [Example 132], the values for the Ki in experiment [1], in experiment [2] (setting [4]) and in experiment [3] were 392 nM, 281 nM and more than 1000 nM, respectively.

With `CCC(F)c1cc(N2CCN(CCO)CC2)cc(-c2ccccc2C#N)c1Cl` (single isomer, unassigned) [Example 13, 1-(2-hydroxyethyl)-4-[3-(2-cyanophenyl)-4-chloro-5-(fluoropropyl)]phenylpiperazine], the Ki came out at 24.9 nM in experiment [1], 4.05 nM in experiment [2] (setting [4]) and 404 nM in experiment [3].

On to `CCN1CCN(c2cc(-c3ccccc3)c(OC)c(S(=O)(=O)CC)c2)CC1` [Example 133, 1-Ethyl-4-(3-phenyl-4-methoxy-5-ethanesulfonyl)phenylpiperazine], for which the Ki in experiment [1] is 9.02 nM; in experiment [2] (setting [4]) it was 28.7 nM; in experiment [3] it was more than 1000 nM.

For the molecule `CCC(=O)c1cc(-c2ccccc2)cc(N2CCN(CC)CC2)c1` [Example 130, 1-Ethyl-4-(3-phenyl-5-propionyl)phenylpiperazine], the Ki is 58 nM in experiment [1]; 29.7 nM in experiment [2] (Ki value, dopamine D2 receptor); 70.4 nM in experiment [3].

With `CCCc1cc(-c2ccccc2)cc(N2CCN(CC)CC2)c1OC` [Example 113, 1-Ethyl-4-(3-phenyl-5-propyl-6-methoxy)phenylpiperazine hyrochloroide], the inhibition constant (Ki) came to 21.1 nM in experiment [1], 8.73 nM in experiment [2] (setting [4]) and 28.9 nM in experiment [3].

Regarding `CCC(F)c1cc(N2CCN(CC)CC2)cc(-c2ccc(F)cc2C)c1Cl` (stereo not drawn) [Example 142, 1-Ethyl-4-{3-[2-(4-fluorotolyl)]-4-chloro-5-(1-fluoropropyl)}phenylpiperazine], the Ki in experiment [1] was found to be 20.5 nM; in experiment [2] (setting [4]), 1.77 nM; in experiment [3] it was 653 nM.

As to `CCN1CCN(c2cc(-c3ccccc3C)c(Cl)c(S(C)(=O)=O)c2)CC1` [Example 158, 1-Ethyl-4-[3-(2-tolyl)-4-chloro-5-methanesulfonyl]phenylpiperazine], the Ki in experiment [1] is 124 nM; in experiment [2] (setting [4]), 12.4 nM; in experiment [3], more than 1000 nM.

`CCCCS(=O)(=O)Nc1cc(N2CCN(CC)CC2)cc(-c2ccccc2C)c1Cl` [Example 19, 1-Ethyl-4-[3-(2-tolyl)-4-chloro-5-butanesulfonylamino]phenylpiperazine]: the Ki was 1.95 nM in experiment [1], 0.64 nM in experiment [2] (setting [4]) and 81.6 nM in experiment [3].

In the case of `COc1c(C(=O)Cc2ccccc2)cc(N2CCN(CCO)CC2)cc1-c1ccccc1` [Example 128, 1-(2-Hydroxyethyl)-4-(3-phenyl-4-methoxy-5-phenylacetyl)phenylpiperazine], the results for the Ki in experiment [1], in experiment [2] (setting [4]) and in experiment [3] were 1.16 nM, 46.1 nM and more than 1000 nM, respectively.

For `CCC(F)c1cc(N2CCN(CC)CC2)cc(-c2ccccc2Cl)c1Cl` (stereo not drawn) [Example 24, 1-Ethyl-4-[3-(2-chlorophonyl)-4-chloro-5-(1-fluoropropyl)]phenylpiperazine], the Ki worked out at 40.9 nM in experiment [1], 3.6 nM in experiment [2] (setting [4]) and 537 nM in experiment [3].

Consider `CCN1CCN(c2ccc(O)c(-c3ccccc3)c2)CC1` [Example 62, 1-Ethyl-4-(3-phenyl-4-hydroxy)phenylpiperazine], for which the Ki in experiment [1], in experiment [2] (setting [4]) and in experiment [3] was more than 1000 nM each time.

For orientation: Ki means the dissociation constant of the complex between target and ligand, obtained from inhibition or displacement.
